Assay results taken from patent US8980879B2 (AbbVie Inc., priority 2013, dated 2015).

Assays:
BRD4 (BDII_E352-M457) = molecular target: T1, BRD4 (BDII_E352-M457) (Homo sapiens, UniProt O60885); assay: TR-FRET bromodomain binding assay, BRD4 second bromodomain
T1 construct: protocol; made in house
Protocol: (§1) A time-resolved fluorescence resonance energy transfer (TR-FRET) assay was used to determine the affinities of compounds of the Examples listed in Table 1 for each bromodomain of BRD4. His-tagged first (BD1: amino acids K57-E168) and second (BD2: amino acids E352-E168) bromodomains of BRD4 were expressed and purified. An Alexa647-labeled BET-inhibitor was used as the fluorescent probe in the assay.
(§2) Compound dilution series were prepared in DMSO via an approximately 3-fold serial dilution from one of the following:
(§3) Assay method D: 500 μM-8.5 nM
(§4) Assay method E: 0.47 mM to 7.8 nM
(§5) Assay method F: 250 μM-4.2 nM
(§6) Assay method G: 0.047 mM to 0.78 nM
(§7) or 5-fold serial dilution from one of the following:
(§8) Assay method A: 2.5 mM-800 nM
(§9) Assay method B: 2.5 mM-797 nM
(§10) For Assay methods A, C, D, and F: Compounds were then diluted 6:100 in assay buffer (20 mM Sodium Phosphate, pH 6.0, 50 mM NaCl, 1 mM Ethylenediaminetetraacetic acid, 0.01% Triton X-100, 1 mM DL-Dithiothreitol) to yield 3× working solutions. Six microliters (μL) of the working solution was then transferred to white, low-volume assay plates (Costar #3673). A 1.5× assay mixture containing His-tagged bromodomain, Europium-conjugated anti-His antibody (Invitrogen PV5596) and the Alexa-647-conjugated probe molecule was also prepared. Twelve μL of this solution were added to the assay plate to reach a final volume of 18 μL.
(§11) For Assay methods B, E, and G: Compound dilutions were added directly into white, low-volume assay plates (Perkin Elmer Proxiplate 384 Plus#6008280) using a Labcyte Echo in conjunction with Labcyte Access and Thermo Multidrop CombinL robotics. Compounds were then suspended in eight microliters (μL) of assay buffer (20 mM Sodium Phosphate, pH 6.0, 50 mM NaCl, 1 mM Ethylenediaminetetraacetic acid disodium salt dihydrate, 0.01% Triton X-100, 1 mM DL-Dithiothreitol) containing His-tagged bromodomain, Europium-conjugated anti-His antibody (Invitrogen PV5596) and Alexa-647-conjugated probe.
(§12) The final concentration of 1× assay mixture for assay methods A, B, C, D, E, F, and G contains 2% DMSO, 8 nM His-tagged bromodomain, 1 nM Europium-conjugated anti-His-tag antibody and 100 nM or 30 nM probe (for BDI or BDII, respectively) and compound concentration in the range of: 50 μM-16 nM for method A, 49.02 μM-15.63 nM for method B, 25 μM-423 pM for method C, 10 μM-169 pM for method D, 9.19 μM 150 pM for method E, 5 μM-85 pM for method F, and 0.92 μM-15 pM for method G.
(§13) After a one-hour equilibration at room temperature, TR-FRET ratios were determined using an Envision multilabel plate reader (Ex 340, Em 495/520).
(§14) TR-FRET data were normalized to the means of 24 no-compound controls (“high”) and 8 controls containing 1 μM un-labeled probe (“low”). Percent inhibition was plotted as a function of compound concentration and the data were fit with the 4 parameter logistic equation to obtain IC50s Inhibition constants (Ki) were calculated from the IC50s, probe Kd and probe concentration. Typical Z′ values were between 0.65 and 0.75. The minimum significant ratio was determined to evaluate assay reproducibility (Eastwood et al., (2006) J Biomol Screen, 11: 253-261). The MSR was determined to be 2.03 for BDI and 1.93 for BDII, and a moving MSR (last six run MSR overtime) for both BDI and BDII was typically <3.

[1] = test system: breast cancer cell line MX-1; assay: MX-1 cell line proliferation assay; format: cell-based; settings: Homo sapiens, MX1; MX-1 cells, 3-day (72 h) proliferation, Cell Titer Glo; read-out: Cellular proliferation: EC50
Protocol: MX-1 Cell Line Proliferation Assay
The impact of compounds of the Examples on cancer cell proliferation was determined using the breast cancer cell line MX-1 (ATCC) in a 3-day proliferation assay and the data are reported in Table 1. MX-1 cells were maintained in RPMI 1640 medium (Sigma) supplemented with 10% FBS at 37 C.° and an atmosphere of 5% CO2. For compound testing, MX-1 cells were plated in 96-well black bottom plates at a density of 5000 cells/well in 90 μL of culture media and incubated at 37° overnight to allow cell adhesion and spreading. Compound dilution series were prepared in DMSO via a 3-fold serial dilution from 3 mM to 0.1 μM. The DMSO dilution series were then diluted 1:100 in phosphate buffered saline, and 10 μL of the resulted solution were added to the appropriate wells of the MX-1 cell plate. The final compound concentrations in the wells were 3, 1, 0.3, 0.1, 0.03, 0.01, 0.003, 0.001, 0.0003 and 0.0001 μM.
Luminescence readings from the Cell Titer Glo assay were normalized to the DMSO treated cells and analyzed using the GraphPad Prism software with sigmoidal curve fitting to obtain EC50s. The minimum significant ratio (MSR) was determined to evaluate assay reproducibility (Eastwood et al., (2006) J Biomol Screen, 11: 253-261). The overall MSR was determined to be 2.1 and a moving MSR (last six run MSR overtime) has been <2.

BRD4 (BDI_K57-E168) = molecular target: T2, BRD4 (BDI_K57-E168) (Homo sapiens, UniProt O60885); assay: TR-FRET bromodomain binding assay, BRD4 first bromodomain; settings: His-tagged BD1, 100 nM Alexa647 probe; assay protocol D or F as given per row in c1; Ki calculated from IC50
T2 construct: BD1: amino acids K57-E168; made in house
Protocol: as §1, §2, §3, §4, §5, §6, §7, §8, §9, §10, §11, §12, §13, §14

[2] = test system: LPS induced IL-6 production; assay: LPS (lipopolysaccharide) induced IL-6 production mouse assay; format: in vivo, mice; settings: CD1 female mice, 3 mg/kg oral 1 h before LPS 2.5 mg/kg ip, serum IL-6 2 h after LPS; p<0.05
Protocol: LPS (Lipopolysaccharide) Induced IL-6 Production Mouse Assay
Compounds of the Examples listed in Table 2 were assayed for their ability to inhibit LPS (lipopolysaccharide) induced IL-6 (Interleukin-6) production in mice. Fox Chase SCID® female mice (Charles Rivers Labs, 5 per group) or CD1 female mice (5 mice per group) received an intraperitoneal challenge of lipopolysaccharide (2.5 mg/kg, L2630 E. coli 0111:B4) one hour after oral administration of compounds. Mice were euthanized 2 hours after lipopolysaccharide injection, blood was removed by cardiac puncture, and then the serum harvested from the blood samples was frozen at −80° C. On the day of the assay the serum samples were brought to room temperature and then diluted 1:20 in phosphate-buffered saline containing 2% bovine serum albumin. Interleukin-6 measurements were performed using a cytokine assay from Meso Scale Discovery (Gaithersburg, Md.) for mouse serum analysis according to the manufacturer's protocol and read on a SECTOR Imager 6000 (Meso Scale Discovery, Gaithersburg, Md.) instrument. Statistical analysis was performed using Prism software (version 5.0) incorporating Dunnett's one way ANOVA. The IL-6 mean and standard deviation of the group of vehicle treated animals were compared with the IL-6 mean and standard deviation of the group treated with drug. A p value <0.05 means that there is less than a 5% probability that the mean values in the two groups are equal.

| Compound | Ki (BRD4 (BDII_E352-M457)) [nM] | EC50 [1] [nM] | Ki (BRD4 (BDI_K57-E168)) [nM] | % inhibition at 3 mg/kg (LPS induced IL-6 production) [2] [%] |
| --- | --- | --- | --- | --- |
| CN1CCN(CC(=O)Nc2ccc3c(c2)-c2cn(C)c4c(=O)[nH]cc(c24)CN3c2ccc(F)cc2)CC1 [Example 36] | 23.2 | 16.8 | 1.34 | 68 |
| Cc1ccc(F)cc1CNC(=O)c1ccc2c(c1)-c1cn(C)c3c(=O)[nH]cc(c13)CN2c1ccc(F)cc1 [Example 57] | 29 | 54.9 | 1.72 | – |
| Cn1cc2c3c(c[nH]c(=O)c31)CN(c1ccc(F)cc1)c1ccc(C(=O)NCc3cc(F)ccc3Br)cc1-2 [Example 58] | 12.7 | 63.3 | 1.83 | – |
| Cn1cc2c3c(c[nH]c(=O)c31)CN(c1ccc(F)cc1)c1ccc(C(=O)NCc3cc(F)ccc3Cl)cc1-2 [Example 60] | 46.1 | 75.5 | 3.2 | – |
| Cn1cc2c3c(c[nH]c(=O)c31)CN(c1ccc(F)cc1)c1ccc(C(=O)NCc3cnn(Cc4ccccc4)c3)cc1-2 [Example 62] | 33.1 | 65.6 | 1.62 | – |
| Cn1cc2c3c(c[nH]c(=O)c31)CN(c1ccc(F)cc1)c1ccc(C(=O)NCc3ccccc3)cc1-2 [Example 63] | 22 | 49.9 | 1.98 | – |
| COc1ccc(F)cc1CC(=O)Nc1ccc2c(c1)-c1cn(C)c3c(=O)[nH]cc(c13)CN2c1ccc(F)cc1 [Example 65] | 44.9 | 55.5 | 3.92 | – |
| Cn1cc2c3c(c[nH]c(=O)c31)CN(c1ccc(F)cc1)c1ccc(NC(=O)Cc3cc(F)ccc3[N+](=O)[O-])cc1-2 [Example 66] | 30.1 | 44.6 | 2.14 | – |
| CCS(=O)(=O)Nc1cnc2c(c1)-c1cn(C)c3c(=O)[nH]cc(c13)CN2c1ccc(F)cc1F [Example 68] | 1.79 | 17.5 | 1.26 | – |
| Cn1cc2c3c(c[nH]c(=O)c31)CN(c1ccc(Cl)cc1)c1ncc(N)cc1-2 [Example 69] | 1.89 | 4.4 | 0.78 | – |
| CCS(=O)(=O)Nc1cnc2c(c1)-c1cn(C)c3c(=O)[nH]cc(c13)CN2c1ccc(Cl)cc1 [Example 70] | 0.708 | 24.4 | 0.79 | – |
| Cn1cc2c3c(c[nH]c(=O)c31)CN(c1ccc(Cl)cc1)c1ncc(NS(C)(=O)=O)cc1-2 [Example 71] | 2.21 | 35.6 | 1.65 | – |

Second part, led by results:

| Ki (BRD4 (BDII_E352-M457)) [nM] | EC50 [1] [nM] | Ki (BRD4 (BDI_K57-E168)) [nM] | Compound | % inhibition at 3 mg/kg (LPS induced IL-6 production) [2] [%] |
| --- | --- | --- | --- | --- |
| 4.41 | 10.1 | 2.56 | CC(=O)Nc1cnc2c(c1)-c1cn(C)c3c(=O)[nH]cc(c13)CN2c1ccc(Cl)cc1 [Example 72] | 63 |
| 17 | > 1000 | 3.61 | CCS(=O)(=O)Nc1ccc2c(c1)-c1cn(C)c3c(=O)[nH]cc(c13)CN2C1CCN(C(C)=O)CC1 [Example 74] | – |
| 54.6 | > 1000 | 2.54 | CC(=O)N1CCC(N2Cc3c[nH]c(=O)c4c3c(cn4C)-c3cc(NC(=O)Cc4cnc(C)s4)ccc32)CC1 [Example 75] | – |
| 17.5 | 332 | 3.46 | CC(=O)N1CCC(N2Cc3c[nH]c(=O)c4c3c(cn4C)-c3cc(NC(=O)Cc4cc(F)ccc4Cl)ccc32)CC1 [Example 76] | – |
| 112 | > 1000 | 4.6 | CC(=O)Nc1ccc2c(c1)-c1cn(C)c3c(=O)[nH]cc(c13)CN2C1CCN(C(C)=O)CC1 [Example 77] | – |
| 0.85 | 6.28 | 1.29 | Cn1cc2c3c(c[nH]c(=O)c31)CN(c1ccc(F)cc1F)c1c-2cc(CS(C)(=O)=O)cc1C1CC1 [Example 78] | – |
| 14.5 | 106 | 3.04 | Cn1cc2c3c(c[nH]c(=O)c31)CN(C1CCN(C(=O)OC(C)(C)C)CC1)c1ccc(CS(C)(=O)=O)cc1-2 [Example 80] | – |
| 11.1 | 77.9 | 4.97 | COC(=O)N1Cc2c[nH]c(=O)c3c2c(cn3C)-c2cc(CS(C)(=O)=O)ccc21 [Example 81] | – |
| 1.47 | 4.93 | 0.83 | CCS(=O)(=O)Nc1ccc2c(c1)-c1cn(C)c3c(=O)[nH]cc(c13)CN2c1ccccn1 [Example 82] | – |
